In one data set the target is T1, rat pituitary receptors (Rattus norvegicus, UniProt P30969).
T1 construct: from tissue; host or cells: rat pituitary
T1 sequence (P30969 1-327): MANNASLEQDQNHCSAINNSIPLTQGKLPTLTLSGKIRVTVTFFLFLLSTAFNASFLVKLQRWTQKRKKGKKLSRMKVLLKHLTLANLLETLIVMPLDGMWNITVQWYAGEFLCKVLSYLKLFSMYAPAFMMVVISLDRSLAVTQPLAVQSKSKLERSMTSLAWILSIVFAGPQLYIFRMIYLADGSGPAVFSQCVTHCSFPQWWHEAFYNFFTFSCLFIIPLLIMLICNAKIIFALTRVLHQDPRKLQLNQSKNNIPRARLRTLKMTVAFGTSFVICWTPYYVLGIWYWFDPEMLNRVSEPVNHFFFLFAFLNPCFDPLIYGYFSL
Nature of the data set: Receptor binding potency, rat pituitary receptors.

The target of the next data set is T2, breast cancer receptors (Homo sapiens, UniProt P30968).
T2 construct: from tissue
T2 sequence (P30968 1-328): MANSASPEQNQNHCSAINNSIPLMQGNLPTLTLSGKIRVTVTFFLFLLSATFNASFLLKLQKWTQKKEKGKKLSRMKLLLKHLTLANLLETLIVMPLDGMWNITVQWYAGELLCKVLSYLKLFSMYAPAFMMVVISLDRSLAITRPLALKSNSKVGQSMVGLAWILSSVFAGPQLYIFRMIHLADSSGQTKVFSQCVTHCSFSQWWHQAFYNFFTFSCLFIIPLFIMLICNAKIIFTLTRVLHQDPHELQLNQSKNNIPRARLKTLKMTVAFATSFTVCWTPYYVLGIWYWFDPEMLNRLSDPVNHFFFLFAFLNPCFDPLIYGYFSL
Nature of the data set: Receptor binding potency, breast cancer receptors.

Data set [1] has as its system estrogen independent MXT mouse mammary cancers. Briefly: Single treatment of estrogen independent MXT mouse mammary cancers (KS-55). Format: in vivo. To be noted: single dose of 650 nmol/20 g mouse (as printed in text). The procedure:
In order to determine the maximum tolerated doses and compare the effects, MXT (3.2) ovex tumor pieces (1 mm^3) were implanted s.c. in female B6 D2 F1 mice. One day after transplantation the mice were randomly divided into groups of five animals and they were treated with a single injection i.p. The groups and doses are shown in the Table 25-1. […] The compounds were dissolved in 0.1% TFA (pH: 2.0). Tumor volume was measured on days 10, 13, 17, and 20.

The target of data set [2] is T3, bombesin receptors on Swiss 3T3 cell line (Mus musculus, UniProt P21729).
T3 construct: host or cells: Swiss 3T3 cells
Briefly: Displacement of [125I-Tyr4]BN binding on Swiss 3T3 cells. On the procedure:
Radio iodination of [Tyr^4 ]BN (Sigma) using a Bio-Rad Enzymobead Radio lodination kit and isolation of mono-iodinated [^125 l-Tyr^4 ]BN was performed as described earlier (1). […] Three to five days after seeding, the confluent cells were washed twice with Hanks' Balanced Salt Solution (HBSS) and incubated for 30 min at 37° C. with 50 pM [^125 l-Tyr^4 ]BN in the absence or presence of several concentrations of unlabeled competitors (Q6^14 gB or BN) in a total volume of 0.5 ml binding buffer (DMEM with 50 mM HEPES, 0.1% bovine serum albumin (BSA), 5 mM MgCl2 and 100 μg/ml bacitracin, pH: 7.4). Nonspecific binding was determined in the presence of 1 μM unlabeled ligand. After three washings with ice-cold HBSS containing 0.1% BSA (pH: 7.4) the cells were detached with 0.05% Trypsin/0.53 mM EDTA solution and transferred to tubes. Radioactivity was measured with a gamma-counter (Micromedic Systems Inc, Huntsville, Ala.). Binding data were evaluated using radio ligand binding analysis programs by McPherson (4). Ki values presented in Table 23-1, were calculated according to the formula of Cheng and Prusoff (5).

The next data set deals with LH-responses. Nature of the data set: Hormonal activity of LH-RH analogs (LH-responses rel. to LH-RH). Format: cell-based. To be noted: relative to LH-RH = 1.
The subject of data set [3] is estrogen independent MXT mouse mammary cancers. Nature of the data set: Effect of cytotoxic LH-RH analogs on estrogen independent MXT mouse mammary cancers (KS-47). It counts as in vivo. To be noted: daily dose of 30 nmol (equimolar) i.p. for 12 days. On the procedure:
MXT (3.2) ovex tumor pieces (1 mm^3) were transplanted in female B6 D2 F1 mice. The treatment started one day after transplantation and was continued for 12 days by i.p. injections once a day. Tumors were measured on days 10, 14 and 18, and tumor volume was calculated.

The values below come from patent US6184374A, “Targeted cytotoxic anthracycline analogs” (priority 1998, dated 2001).

Molecules are shown by their SMILES. pIC50, pKi: −log10 of the molar value.

T3 sequence (P21729 whole entry): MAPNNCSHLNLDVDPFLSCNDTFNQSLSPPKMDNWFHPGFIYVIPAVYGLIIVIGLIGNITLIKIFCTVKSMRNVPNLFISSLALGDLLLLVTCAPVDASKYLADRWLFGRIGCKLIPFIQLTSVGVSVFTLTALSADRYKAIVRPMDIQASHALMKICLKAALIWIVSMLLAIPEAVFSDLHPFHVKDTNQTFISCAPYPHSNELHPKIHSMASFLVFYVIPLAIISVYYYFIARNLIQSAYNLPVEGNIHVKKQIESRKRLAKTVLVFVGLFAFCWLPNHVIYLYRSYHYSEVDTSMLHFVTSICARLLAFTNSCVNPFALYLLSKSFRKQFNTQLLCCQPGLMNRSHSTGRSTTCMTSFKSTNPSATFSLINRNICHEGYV

With `COc1cccc2c1C(=O)c1c(O)c3c(c(O)c1C2=O)C[C@@](O)(C(=O)COC(=O)CCCC(=O)NCCCC[C@@H](NC(=O)[C@H](Cc1ccc(O)cc1)NC(=O)[C@H](CO)NC(=O)[C@H](Cc1c[nH]c2ccccc12)NC(=O)[C@H](Cc1c[nH]cn1)NC(=O)[C@@H]1CCC(=O)N1)C(=O)N[C@@H](CC(C)C)C(=O)N[C@@H](CCCNC(=N)N)C(=O)N1CCC[C@H]1C(=O)NCC(N)=O)C[C@@H]3O[C@H]1C[C@H](N)[C@H](O)[C@H](C)O1` [Q1^14 gL, [D-Lys^6 (DOX^14 -O-glt)]LH-RH], the pIC50 is 8.64 at rat pituitary receptors and 8.14 on breast cancer receptors. For the same compound, in data set [1], the Toxicity result is reported as “nontoxic”.

With `COc1cccc2c1C(=O)c1c(O)c3c(c(O)c1C2=O)C[C@@](O)(C(=O)COC(=O)CCCC(=O)N[C@@H](CCC(N)=O)C(=O)N[C@@H](Cc1c[nH]c2ccccc12)C(=O)N[C@@H](C)C(=O)N[C@H](C(=O)NCC(=O)N[C@@H](Cc1c[nH]cn1)C(=O)N[C@H](CN[C@@H](CC(C)C)C(N)=O)CC(C)C)C(C)C)C[C@@H]3O[C@H]1C[C@H](N2C=CCC2)[C@H](O)[C@H](C)O1` [Q6^14 gB, 2-pyrrolino-DOX^14 -O-glt-Gln-Trp-Ala-Val-Gly-His-Leu.PSI.(CH2 --NH)Leu-NH2], in data set [2], the pKi was 9.00.

For the compound `COc1cccc2c1C(=O)c1c(O)c3c(c(O)c1C2=O)C[C@@](O)(C(=O)COC(=O)CCCC(=O)NCCCC[C@@H](NC(=O)[C@H](Cc1ccc(O)cc1)NC(=O)[C@H](CO)NC(=O)[C@H](Cc1c[nH]c2ccccc12)NC(=O)[C@H](Cc1c[nH]cn1)NC(=O)[C@@H]1CCC(=O)N1)C(=O)N[C@@H](CC(C)C)C(=O)N[C@@H](CCCNC(=N)N)C(=O)N1CCC[C@H]1C(=O)NCC(N)=O)C[C@@H]3O[C@H]1C[C@H](N2C=CCC2)[C@H](O)[C@H](C)O1` [Q6^14 gL, [D-Lys^6 (2-pyrrolino-DOX^14 -O-glt)]LH-RH], the negative logarithm of the IC50 (pIC50) on rat pituitary receptors was 8.25; on breast cancer receptors, 8.17.

As for `CC(C)C[C@H](NC(=O)[C@@H](CCCCN)NC(=O)[C@H](Cc1ccc(O)cc1)NC(=O)[C@H](CO)NC(=O)[C@H](Cc1c[nH]c2ccccc12)NC(=O)[C@H](Cc1c[nH]cn1)NC(=O)[C@@H]1CCC(=O)N1)C(=O)N[C@@H](CCCNC(=N)N)C(=O)N1CCC[C@H]1C(=O)NCC(N)=O` [[D-Lys^6]LH-RH], the “Hormonal activity (LH-responses rel. to LH-RH = 1)” value with LH-responses is 8. At breast cancer receptors, this compound had a pIC50 of 8.74. Also, in data set [3], the “Effect on tumor growth” value is “did not affect tumor growth”, the “Mean survival after transplantation” value is 23.5 days, the “Mean tumor volume on day 10” value was 165 mm^3 and the “Mean tumor volume on day 14” value amounted to 1348 mm^3. The “Mean tumor volume on day 18” value in data set [3] came to 4003 mm^3.
